Laboratory results: US11198713B2, “Agents modulating beta-catenin functions and methods thereof” (FOG PHARMACEUTICALS, INC., priority 2017, dated 2021)

Target: T1, full-length beta-catenin (Axin site) (Homo sapiens, UniProt P35222)
T1 construct: 15 nM full-length beta-catenin, 20 nM FITC labeled peptide in buffer
T1 sequence (P35222 1-781): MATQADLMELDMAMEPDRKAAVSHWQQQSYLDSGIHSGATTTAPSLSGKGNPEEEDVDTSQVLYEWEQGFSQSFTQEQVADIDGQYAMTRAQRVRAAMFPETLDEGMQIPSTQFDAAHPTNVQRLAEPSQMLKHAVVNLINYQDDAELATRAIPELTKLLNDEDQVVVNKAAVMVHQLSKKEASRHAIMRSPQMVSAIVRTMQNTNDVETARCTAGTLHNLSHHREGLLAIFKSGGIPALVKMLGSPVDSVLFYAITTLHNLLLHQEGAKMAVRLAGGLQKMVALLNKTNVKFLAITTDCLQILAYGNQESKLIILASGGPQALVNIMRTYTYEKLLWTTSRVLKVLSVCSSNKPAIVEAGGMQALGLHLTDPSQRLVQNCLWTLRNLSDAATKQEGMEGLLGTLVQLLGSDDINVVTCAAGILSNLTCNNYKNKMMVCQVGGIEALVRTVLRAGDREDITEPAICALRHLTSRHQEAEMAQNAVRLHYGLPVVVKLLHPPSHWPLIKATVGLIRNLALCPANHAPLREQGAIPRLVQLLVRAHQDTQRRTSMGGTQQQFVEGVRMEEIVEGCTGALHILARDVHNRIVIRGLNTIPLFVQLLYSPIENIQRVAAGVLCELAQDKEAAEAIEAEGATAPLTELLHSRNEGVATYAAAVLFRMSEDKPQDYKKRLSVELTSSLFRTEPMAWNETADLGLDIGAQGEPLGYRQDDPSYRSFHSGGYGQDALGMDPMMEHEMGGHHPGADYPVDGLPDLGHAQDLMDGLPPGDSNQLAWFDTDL
Assay: Competition fluorescence polarization assay (Axin site probe)
Type: binding
Conditions: competition fluorescence polarization, Table 2; read-out: in vitro FP EC50
Method: FIG. 1. […] Peptide solutions were prepared in buffer (50 mM Tris pH 8.0, 250 mM NaCl, 2% glycerol, 0.5 mM EDTA, 0.02% w/v sodium azide) using a 3-fold serial dilution from 5 μM. Probe solution (15 nM full-length 13-Catenin, 20 nM FITC labeled peptide (FITC-PEG1-PQ-S5-ILD-S5-HVRRVWR (SEQ ID NO: 1) (hydrocarbon staple formed by two S5 via olefin metathesis)) in buffer) was prepared and incubated for 5 minutes, then 40 μL per well plated in a black polystyrene 384-well plate (Corning). Equal volume of the titrated peptide was added to the plate and incubated protected from light for 15 minutes prior to read. Reads were performed on a Spectramax M5 (Molecular Devices) in duplicate.
FIG. 7. […] BCL9 Competition FP assay: Peptide solutions were prepared in buffer (50 mM Tris pH 8.0, 250 mM NaCl, 2% glycerol, 0.5 mM EDTA, 0.02% w/v sodium azide) using a 3-fold serial dilution from 10 μM. Probe solution (250 nM full-length beta-catenin, 20 nM 5FAM labeled peptide in buffer) was prepared and 40 μL per well plated in a black polystyrene 384-well plate (Corning). Equal volume of the titrated peptide was added to the plate and incubated protected from light for 15 minutes prior to read. Reads were performed on a Spectramax M5 (Molecular Devices) in duplicate. Probe: Ac-[…]nLeu-Leu-2NapA-bala-bala-Lys5FAM-NH2 (SEQ ID NO: 2) (from Biochemistry, 2009, 48 (40), pp 9534-9541). Axin Competition FP assay: Peptide solutions were prepared in buffer (50 mM Tris pH 8.0, 250 mM NaCl, 2% glycerol, 0.5 mM EDTA, 0.02% w/v sodium azide) using a 3-fold serial dilution from 5 μM. Probe solution (15 nM full-length beta-catenin, 20 nM FITC labeled peptide in buffer) was prepared and incubated for 5 minutes, then 40 μL per well plated in a black polystyrene 384-well plate (Corning). Equal volume of the titrated peptide was added to the plate and incubated protected from light for 15 minutes prior to read. Reads were performed on a Spectramax M5 (Molecular Devices) in duplicate. Probe: FITC-StAx-33 from Grossmann et al. PNAS 109 17942-17947.

EC50 [µM] | SMILES
> 5 | CC[C@H](C)[C@@H]1NC(=O)[C@H](Cc2ccccn2)NC(=O)[C@H](C)NC(=O)[C@H](CC(=O)O)NC(=O)[C@H](CC(C)C)NC(=O)[C@H]([C@@H](C)CC)NC(=O)[C@](C)(NC(=O)[C@H](C)NC(C)=O)CCCCCCC=CCOC(=O)N2CC[C@@](C(=O)N[C@@H](CCC(N)=O)C(=O)N[C@H](C(=O)N[C@@H](Cc3c[nH]c4ccccc34)C(N)=O)C(C)C)(C2)NC1=O (single isomer, unassigned) [FP0559c Isomer 2, Ac-A-R8-I-L-D-A-2pyr-I-MB-Q-V-W-NH2]
> 5 | CC[C@H](C)[C@@H]1NC(=O)[C@H](Cc2ccccn2)NC(=O)[C@H](C)NC(=O)[C@H](CC(=O)O)NC(=O)[C@H](CC(C)C)NC(=O)[C@H]([C@@H](C)CC)NC(=O)[C@](C)(NC(=O)[C@H](C)NC(C)=O)CCCCCCC=CCOC(=O)N2CC[C@@](C(=O)N[C@@H](CO)C(=O)N[C@H](C(=O)N[C@@H](Cc3c[nH]c4ccccc34)C(N)=O)C(C)C)(C2)NC1=O (single isomer, unassigned) [FP0560c Isomer 1, Ac-A-R8-I-L-D-A-2pyr-I-MB-S-V-W-NH2]
> 5 | CC[C@H](C)[C@@H]1NC(=O)[C@H](Cc2ccccn2)NC(=O)[C@H](C)NC(=O)[C@H](CC(=O)O)NC(=O)[C@H](CC(C)C)NC(=O)[C@H]([C@@H](C)CC)NC(=O)[C@](C)(NC(=O)[C@H](C)NC(C)=O)CCCCCCC=CCOC(=O)N2CC[C@@](C(=O)N[C@@H](CO)C(=O)N[C@H](C(=O)N[C@@H](Cc3c[nH]c4ccccc34)C(N)=O)C(C)C)(C2)NC1=O (single isomer, unassigned) [FP0560c Isomer 2, Ac-A-R8-I-L-D-A-2pyr-I-MB-S-V-W-NH2]
> 5 | CC[C@H](C)[C@@H]1NC(=O)[C@H](Cc2ccccn2)NC(=O)[C@H](C)NC(=O)[C@H](CC(=O)O)NC(=O)[C@H](CC(C)C)NC(=O)[C@H]([C@@H](C)CC)NC(=O)[C@](C)(NC(=O)[C@H](C)NC(C)=O)CCCCCCC=CCOC(=O)N2CC[C@@](C(=O)N[C@H](C(=O)N[C@H](C(=O)N[C@@H](Cc3c[nH]c4ccccc34)C(N)=O)C(C)C)[C@@H](C)O)(C2)NC1=O (single isomer, unassigned) [FP0561c Isomer 1, Ac-A-R8-I-L-D-A-2pyr-I-MB-T-V-W-NH2]
> 5 | CC[C@H](C)[C@@H]1NC(=O)[C@H](Cc2ccccn2)NC(=O)[C@H](C)NC(=O)[C@H](CC(=O)O)NC(=O)[C@H](CC(C)C)NC(=O)[C@H]([C@@H](C)CC)NC(=O)[C@](C)(NC(=O)[C@H](C)NC(C)=O)CCCCCCC=CCOC(=O)N2CC[C@@](C(=O)N[C@H](C(=O)N[C@H](C(=O)N[C@@H](Cc3c[nH]c4ccccc34)C(N)=O)C(C)C)[C@@H](C)O)(C2)NC1=O (single isomer, unassigned) [FP0561c Isomer 2, Ac-A-R8-I-L-D-A-2pyr-I-MB-T-V-W-NH2]
> 5 | CC[C@H](C)[C@@H]1NC(=O)[C@H](Cc2ccccn2)NC(=O)[C@H](C)NC(=O)[C@H](CC(=O)O)NC(=O)[C@H](CC(C)C)NC(=O)[C@H]([C@@H](C)CC)NC(=O)[C@](C)(NC(=O)[C@H](C)NC(C)=O)CCCCCCC=CCOC(=O)N2CC[C@@](C(=O)N[C@H](C(=O)N[C@H](C(=O)N[C@@H](Cc3c[nH]c4ccccc34)C(N)=O)C(C)C)C(C)C)(C2)NC1=O (single isomer, unassigned) [FP0562c Isomer 1, Ac-A-R8-I-L-D-A-2pyr-I-MB-V-V-W-NH2]
> 5 | CC[C@H](C)[C@@H]1NC(=O)[C@H](Cc2ccccn2)NC(=O)[C@H](C)NC(=O)[C@H](CC(=O)O)NC(=O)[C@H](CC(C)C)NC(=O)[C@H]([C@@H](C)CC)NC(=O)[C@](C)(NC(=O)[C@H](C)NC(C)=O)CCCCCCC=CCOC(=O)N2CC[C@@](C(=O)N[C@H](C(=O)N[C@H](C(=O)N[C@@H](Cc3c[nH]c4ccccc34)C(N)=O)C(C)C)C(C)C)(C2)NC1=O (single isomer, unassigned) [FP0562c Isomer 2, Ac-A-R8-I-L-D-A-2pyr-I-MB-V-V-W-NH2]
> 5 | CC[C@H](C)[C@@H]1NC(=O)[C@H](Cc2ccccn2)NC(=O)[C@H](C)NC(=O)[C@H](CC(=O)O)NC(=O)[C@H](CC(C)C)NC(=O)[C@H]([C@@H](C)CC)NC(=O)[C@](C)(NC(=O)[C@H](C)NC(C)=O)CCCCCCC=CCOC(=O)N2CC[C@@](C(=O)N[C@@H](Cc3c[nH]c4ccccc34)C(=O)N[C@H](C(=O)N[C@@H](Cc3c[nH]c4ccccc34)C(N)=O)C(C)C)(C2)NC1=O (single isomer, unassigned) [FP0563c Isomer 1, Ac-A-R8-I-L-D-A-2pyr-I-MB-W-V-W-NH2]
> 5 | CC[C@H](C)[C@@H]1NC(=O)[C@H](Cc2ccccn2)NC(=O)[C@H](C)NC(=O)[C@H](CC(=O)O)NC(=O)[C@H](CC(C)C)NC(=O)[C@H]([C@@H](C)CC)NC(=O)[C@](C)(NC(=O)[C@H](C)NC(C)=O)CCCCCCC=CCOC(=O)N2CC[C@@](C(=O)N[C@@H](Cc3c[nH]c4ccccc34)C(=O)N[C@H](C(=O)N[C@@H](Cc3c[nH]c4ccccc34)C(N)=O)C(C)C)(C2)NC1=O (single isomer, unassigned) [FP0563c Isomer 2, Ac-A-R8-I-L-D-A-2pyr-I-MB-W-V-W-NH2]
> 5 | CC[C@H](C)[C@@H]1NC(=O)[C@H](Cc2ccccn2)NC(=O)[C@H](C)NC(=O)[C@H](CC(=O)O)NC(=O)[C@H](CC(C)C)NC(=O)[C@H]([C@@H](C)CC)NC(=O)[C@](C)(NC(=O)[C@H](C)NC(C)=O)CCCCCCC=CCOC(=O)N2CC[C@@](C(=O)N[C@@H](Cc3ccc(O)cc3)C(=O)N[C@H](C(=O)N[C@@H](Cc3c[nH]c4ccccc34)C(N)=O)C(C)C)(C2)NC1=O (single isomer, unassigned) [FP0564c Isomer 1, Ac-A-R8-I-L-D-A-2pyr-I-MB-Y-V-W-NH2]
> 5 | CC[C@H](C)[C@@H]1NC(=O)[C@H](Cc2ccccn2)NC(=O)[C@H](C)NC(=O)[C@H](CC(=O)O)NC(=O)[C@H](CC(C)C)NC(=O)[C@H]([C@@H](C)CC)NC(=O)[C@](C)(NC(=O)[C@H](C)NC(C)=O)CCCCCCC=CCOC(=O)N2CC[C@@](C(=O)N[C@@H](Cc3ccc(O)cc3)C(=O)N[C@H](C(=O)N[C@@H](Cc3c[nH]c4ccccc34)C(N)=O)C(C)C)(C2)NC1=O (single isomer, unassigned) [FP0564c Isomer 2, Ac-A-R8-I-L-D-A-2pyr-I-MB-Y-V-W-NH2]
> 5 | CC[C@H](C)[C@@H]1NC(=O)[C@H](Cc2ccccn2)NC(=O)[C@H](C)NC(=O)[C@H](CC(=O)O)NC(=O)[C@H](CC(C)C)NC(=O)[C@H]([C@@H](C)CC)NC(=O)[C@](C)(NC(=O)[C@H](C)NC(C)=O)CCCCCCC=CCOC(=O)N2CC[C@@](C(=O)N[C@@H](CC3CCC3)C(=O)N[C@H](C(=O)N[C@@H](Cc3c[nH]c4ccccc34)C(N)=O)C(C)C)(C2)NC1=O (single isomer, unassigned) [FP0565c Isomer 1, Ac-A-R8-I-L-D-A-2pyr-I-MB-Cba-V-W-NH2]
> 5 | CC[C@H](C)[C@@H]1NC(=O)[C@H](Cc2ccccn2)NC(=O)[C@H](C)NC(=O)[C@H](CC(=O)O)NC(=O)[C@H](CC(C)C)NC(=O)[C@H]([C@@H](C)CC)NC(=O)[C@](C)(NC(=O)[C@H](C)NC(C)=O)CCCCCCC=CCOC(=O)N2CC[C@@](C(=O)N[C@@H](CC3CCC3)C(=O)N[C@H](C(=O)N[C@@H](Cc3c[nH]c4ccccc34)C(N)=O)C(C)C)(C2)NC1=O (single isomer, unassigned) [FP0565c Isomer 2, Ac-A-R8-I-L-D-A-2pyr-I-MB-Cba-V-W-NH2]
